Measured values as given in PubChem BioAssay AID256 (DTP/NCI, 2004).
“And” between values parts separate entries of the source, which are not always exact repeats. Equal values may be shown once. Inconclusive results and toxic doses are left out. The calls were made as follows: active = survival T/C of 150% or more; inactive = T/C below 125% in these data.

Test system: CD2F1 mice, L1210 leukemia ip, survival T/C
Test: NCI In Vivo Anticancer Drug Screen. Data for tumor model L1210 Leukemia (intraperitoneal) in CD2F1 (CDF1) mice
Conditions: higher = longer survival
Procedure, shortened: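 Vehicle-treated tumor-bearing mice served as controls (C) for compound-treated mice (T). Reported figure is T divided by C.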

[1] = endpoint: mean survival time, dose: 100.0 mg/kg/injection, schedule: Q01DX009 (ip), vehicle: saline with Tween-80
[2] = endpoint: mean survival time, dose: 200.0 mg/kg/injection, schedule: Q01DX009 (ip), vehicle: saline with Tween-80
[3] = endpoint: mean survival time, dose: 400.0 mg/kg/injection, schedule: Q01DX009 (ip), vehicle: saline with Tween-80
[4] = endpoint: mean survival time, dose: 25.0 mg/kg/injection, schedule: Q01DX009 (ip), vehicle: Klucel (hydroxypropylcellulose) (HPC)
[5] = endpoint: mean survival time, dose: 50.0 mg/kg/injection, schedule: Q01DX009 (ip), vehicle: Klucel (hydroxypropylcellulose) (HPC)
[6] = endpoint: mean survival time, dose: 100.0 mg/kg/injection, schedule: Q04DX003 (ip), vehicle: saline with Tween-80
[7] = endpoint: mean survival time, dose: 200.0 mg/kg/injection, schedule: Q04DX003 (ip), vehicle: saline with Tween-80
[8] = endpoint: mean survival time, dose: 400.0 mg/kg/injection, schedule: Q04DX003 (ip), vehicle: saline with Tween-80
[9] = endpoint: mean survival time, dose: 50.0 mg/kg/injection, schedule: Q01DX009 (ip), vehicle: saline with Tween-80
[10] = endpoint: mean survival time, dose: 6.25 mg/kg/injection, schedule: Q04DX003 (ip), vehicle: saline with Tween-80
[11] = endpoint: mean survival time, dose: 12.5 mg/kg/injection, schedule: Q04DX003 (ip), vehicle: saline with Tween-80
[12] = endpoint: mean survival time, dose: 100.0 mg/kg/injection, schedule: Q01DX001 (ip), vehicle: saline with Tween-80
[13] = endpoint: mean survival time, dose: 200.0 mg/kg/injection, schedule: Q01DX001 (ip), vehicle: saline with Tween-80
[14] = endpoint: mean survival time, dose: 400.0 mg/kg/injection, schedule: Q01DX001 (ip), vehicle: saline with Tween-80
[15] = endpoint: mean survival time, dose: 100.0 mg/kg/injection, schedule: Q04DX002 (ip), vehicle: saline with Tween-80
[16] = endpoint: mean survival time, dose: 200.0 mg/kg/injection, schedule: Q04DX002 (ip), vehicle: saline with Tween-80
[17] = endpoint: mean survival time, dose: 400.0 mg/kg/injection, schedule: Q04DX002 (ip), vehicle: saline with Tween-80
[18] = endpoint: mean survival time, dose: 100.0 mg/kg/injection, schedule: Q01DX001 (ip), vehicle: saline

Measured: T/C

Cc1c[n+]([O-])ccc1Br
inactive: endpoint: mean survival time, dose: 25.0 mg/kg/injection, schedule: Q01DX009 (ip), vehicle: water 94 % of control | endpoint: mean survival time, dose: 50.0 mg/kg/injection, schedule: Q01DX009 (ip), vehicle: water 100 % of control | endpoint: mean survival time, dose: 100.0 mg/kg/injection, schedule: Q01DX009 (ip), vehicle: water 88 % of control

CCCC(C)C1=NC(C)(C)CCO1 (stereo not given)
inactive: endpoint: mean survival time, dose: 12.5 mg/kg/injection, schedule: Q04DX002 (ip), vehicle: saline 96 % of control | endpoint: mean survival time, dose: 25.0 mg/kg/injection, schedule: Q04DX002 (ip), vehicle: saline 101 % of control | endpoint: mean survival time, dose: 50.0 mg/kg/injection, schedule: Q04DX002 (ip), vehicle: saline 93 % of control

CC1(C)CCC(CC(=O)O)(CC(=O)O)CC1
inactive: [1] 105 % of control | [2] 104 % of control | [3] 104 % of control

O=NN(CCCl)C(=O)Nc1ccc2[nH]c3ccccc3c2c1
inactive: [4] 101 % of control | [5] 116 % of control | endpoint: mean survival time, dose: 100.0 mg/kg/injection, schedule: Q01DX009 (ip), vehicle: Klucel (hydroxypropylcellulose) (HPC) 118 % of control | endpoint: mean survival time, dose: 177.0 mg/kg/injection, schedule: Q01DX009 (ip), vehicle: saline with Tween-80 91 % of control | endpoint: mean survival time, dose: 200.0 mg/kg/injection, schedule: Q01DX009 (ip), vehicle: Klucel (hydroxypropylcellulose) (HPC) 123 % of control | [3] 104 % of control

Cc1ccc(C2=CSc3ccccc3N2)cc1
inactive: endpoint: mean survival time, dose: 100.0 mg/kg/injection, schedule: Q04DX002 (ip), vehicle: other 104 % of control | endpoint: mean survival time, dose: 200.0 mg/kg/injection, schedule: Q04DX002 (ip), vehicle: other 104 % of control

Cc1cn(C2CC(O)C(CO)O2)c(=O)nc1NCCc1c[nH]c2ccccc12 (stereo not given)
inactive: endpoint: median survival time, dose: 12.5 mg/kg/injection, schedule: Q01DX005 (ip), vehicle: distilled water + Tween-80 103 % of control | endpoint: median survival time, dose: 25.0 mg/kg/injection, schedule: Q01DX005 (ip), vehicle: distilled water + Tween-80 103 % of control | endpoint: median survival time, dose: 50.0 mg/kg/injection, schedule: Q01DX005 (ip), vehicle: distilled water + Tween-80 102 % of control | endpoint: median survival time, dose: 100.0 mg/kg/injection, schedule: Q01DX005 (ip), vehicle: distilled water + Tween-80 103 % of control | endpoint: median survival time, dose: 200.0 mg/kg/injection, schedule: Q01DX005 (ip), vehicle: distilled water + Tween-80 102 % of control

CC(Nc1ccccc1C(=O)O)C(=O)O (stereo not given)
inactive: [6] 102 % of control | [7] 104 % of control | [8] 104 % of control

CCCC/C=C/C1CCCCC1C (stereo not given)
inactive: [9] 100 % of control | [1] 104 % of control | [2] 108 % of control

O=Cc1c[nH]c2ncccc12
inactive: [6] 98 % of control | [7] 94 % of control | [8] 98 % of control

O=[N+]([O-])c1cc(C2CCCCC2)c(O)c([N+](=O)[O-])c1
inactive: endpoint: mean survival time, dose: 5.0 mg/kg/injection, schedule: Q01DX009 (ip), vehicle: saline with Tween-80 98 % of control | endpoint: mean survival time, dose: 10.0 mg/kg/injection, schedule: Q01DX009 (ip), vehicle: saline with Tween-80 93 % of control | endpoint: mean survival time, dose: 20.0 mg/kg/injection, schedule: Q01DX009 (ip), vehicle: saline with Tween-80 89 % of control

CC(C)CCCC(C)C1CCC2C3=CCC4CC(OC(=O)CCC(C)C)CCC4(C)C3CCC21C (stereo not given)
inactive: [6] 101 % of control | [7] 96 % of control | [8] 104 % of control

CC([NH-])CC(C)[NH-].[I][Pt+2][I] (stereo not given)
inactive: [10] 113 % of control | [11] 121 % of control

COC12C(COC(C)=O)C3=C(C(=O)C(C)=C(N4CCCCC4)C3=O)N1CC1NC12 (stereo not given)
inactive: endpoint: mean survival time, dose: 0.75 mg/kg/injection, schedule: Q01DX001 (ip), vehicle: distilled water + Tween-80 97 % of control | endpoint: mean survival time, dose: 1.5 mg/kg/injection, schedule: Q01DX001 (ip), vehicle: distilled water + Tween-80 103 % of control | endpoint: mean survival time, dose: 3.0 mg/kg/injection, schedule: Q01DX001 (ip), vehicle: distilled water + Tween-80 105 % of control and 112 % of control | endpoint: mean survival time, dose: 6.0 mg/kg/injection, schedule: Q01DX001 (ip), vehicle: distilled water + Tween-80 122 % of control and 105 % of control | endpoint: mean survival time, dose: 12.0 mg/kg/injection, schedule: Q01DX001 (ip), vehicle: distilled water + Tween-80 112 % of control

c1ccc2c(c1)CCc1ccccc1N2
inactive: [12] 100 % of control | [13] 100 % of control | [14] 91 % of control

O=C(COc1ccc(F)cc1F)OC(=O)COc1ccc(F)cc1F
inactive: [15] 92 % of control | [16] 89 % of control | [17] 89 % of control

CN1CC(=O)NC1=S
inactive: [18] 87 % of control

CC1(O)Nc2nc3nc[nH]c3c(=O)n2C1O (stereo not given)
inactive: endpoint: mean survival time, dose: 12.5 mg/kg/injection, schedule: Q01DX005 (ip), vehicle: water 94 % of control | endpoint: mean survival time, dose: 25.0 mg/kg/injection, schedule: Q01DX005 (ip), vehicle: water 90 % of control | endpoint: mean survival time, dose: 50.0 mg/kg/injection, schedule: Q01DX005 (ip), vehicle: water 100 % of control | endpoint: mean survival time, dose: 100.0 mg/kg/injection, schedule: Q01DX005 (ip), vehicle: water 94 % of control | endpoint: mean survival time, dose: 200.0 mg/kg/injection, schedule: Q01DX005 (ip), vehicle: water 93 % of control

CN=C(N)N=C(N)N
inactive: endpoint: mean survival time, dose: 100.0 mg/kg/injection, schedule: Q04DX003 (ip), vehicle: saline 103 % of control | endpoint: mean survival time, dose: 200.0 mg/kg/injection, schedule: Q04DX003 (ip), vehicle: saline 100 % of control | endpoint: mean survival time, dose: 400.0 mg/kg/injection, schedule: Q04DX003 (ip), vehicle: saline 95 % of control

O=C(CCl)NC(=O)CCl
inactive: endpoint: mean survival time, dose: 25.0 mg/kg/injection, schedule: Q01DX009 (ip), vehicle: saline sonified 90 % of control | endpoint: mean survival time, dose: 50.0 mg/kg/injection, schedule: Q01DX009 (ip), vehicle: saline sonified 104 % of control | endpoint: mean survival time, dose: 100.0 mg/kg/injection, schedule: Q01DX009 (ip), vehicle: saline sonified 90 % of control

CN1CCC(CCOCc2ccccc2)(CN2c3ccccc3Sc3ccccc32)C1 (stereo not given)
inactive: [10] 106 % of control | [11] 110 % of control | endpoint: mean survival time, dose: 25.0 mg/kg/injection, schedule: Q04DX003 (ip), vehicle: saline with Tween-80 104 % of control

O=C1C=C(NCCO)C(=O)C=C1NCCO
inactive: [12] 98 % of control | [13] 90 % of control | [14] 95 % of control

COc1cc([N+](=O)[O-])ccc1NC(=O)NCc1ccccc1
inactive: endpoint: mean survival time, dose: 50.0 mg/kg/injection, schedule: Q04DX002 (ip), vehicle: saline with Tween-80 89 % of control and 94 % of control | [1] 100 % of control | [15] 88 % of control and 96 % of control and 97 % of control | [2] 95 % of control | [16] 93 % of control and 105 % of control | [3] 103 % of control | [17] 93 % of control

COc1ccc(-c2c(O)c3ccc(OC)cc3oc2=O)cc1
inactive: endpoint: mean survival time, dose: 25.0 mg/kg/injection, schedule: Q01DX009 (ip), vehicle: saline with Tween-80 96 % of control | [9] 108 % of control | [1] 108 % of control

CC1(C)CC(=O)C(C)(C)C(=O)C1
inactive: [18] 100 % of control

CCC(NC(=O)OCc1ccccc1)C(=O)O (stereo not given)
inactive: [1] 88 % of control | [2] 90 % of control | [3] 90 % of control

CCOC(=O)c1c(C)oc2cc3c(C(=O)OCC)c(C)oc3cc12
inactive: endpoint: mean survival time, dose: 100.0 mg/kg/injection, schedule: Q01DX001 (ip), vehicle: Klucel (hydroxypropylcellulose) (HPC) 90 % of control | endpoint: mean survival time, dose: 200.0 mg/kg/injection, schedule: Q01DX001 (ip), vehicle: Klucel (hydroxypropylcellulose) (HPC) 95 % of control | endpoint: mean survival time, dose: 400.0 mg/kg/injection, schedule: Q01DX001 (ip), vehicle: Klucel (hydroxypropylcellulose) (HPC) 93 % of control

Cc1noc(N)c1C
inactive: [9] 92 % of control | [1] 95 % of control | [2] 92 % of control

COC(=O)c1cc([N+](=O)[O-])c(Sc2ncnc3nc[nH]c23)c([N+](=O)[O-])c1
inactive: endpoint: mean survival time, dose: 11.0 mg/kg/injection, schedule: Q01DX005 (ip), vehicle: other 103 % of control | endpoint: mean survival time, dose: 12.5 mg/kg/injection, schedule: Q01DX005 (ip), vehicle: other 110 % of control | endpoint: mean survival time, dose: 16.5 mg/kg/injection, schedule: Q01DX005 (ip), vehicle: other 124 % of control | endpoint: mean survival time, dose: 25.0 mg/kg/injection, schedule: Q01DX005 (ip), vehicle: other 95 % of control | endpoint: mean survival time, dose: 50.0 mg/kg/injection, schedule: Q01DX005 (ip), vehicle: other 115 % of control

CSC(=C[N+](=O)[O-])SC
inactive: [4] 97 % of control | [5] 106 % of control
